Consider 4 compounds from BindingDB's records for doi:10.1021/np980122t (Istituto Per La Chimica Di Molecole Di Interesse Biologico …, 1998).

A short description of assay [1]: Inhibition of Naja naja venom group1 sPLA2 at 10 uM by liquid scintillation counting.
Assay [2] in a line: Inhibition of bee venom group3 sPLA2 at 10 uM by liquid scintillation counting.
Assay [3] in a line: Inhibition of human synovial group2 sPLA2 at 10 uM by liquid scintillation counting.
Assay [4] is described as follows: Inhibition of rat air pouch group2 sPLA2 at 10 uM by liquid scintillation counting.

Consider `CC1=C(CC/C(C)=C/CCC2=CC[C@H](C3=CC(=O)O[C@H]3O)O[C@H]2O)C(C)(C)CCC1` [5-Hydroxy-4-{(R)-6-hydroxy-5-[(E)-4-methyl-6-(2,6,6-trimethyl-cyclohex-1-enyl)-hex-3-enyl]-3,6-dihydro-2H-pyran-2-yl}-5H-furan-2-one], for which the values for the IC50 in assay [1] and in assay [2] were 17 µM and 62.5 µM, respectively. Also, the inhibition in assay [3] amounted to 93.2%; in assay [4] it was 38.4%.
On to `C=C1CCC[C@H]2[C@](C)(CCC3=CCC(C4=CC(=O)OC4O)OC3)[C@H](C)CC[C@]12C` (stereo partly drawn) [CACOSPONGIONOLIDE B], for which the 50% inhibitory concentration (IC50) in assay [2] came out at 35.4 µM. Moreover, the inhibition in assay [3] turned out to be 86.7%; in assay [4], 36.9%.
With `CC1=CCC[C@@H]2[C@@](C)(CCC3=CC[C@H](C4=CC(=O)O[C@H]4O)OC3)[C@@H](C)CC[C@@]12C` [cacospongionolide E], in assay [2], it took 94.8 µM to reach half-maximal inhibition (IC50). Besides, the figures for the inhibition in assay [3] and in assay [4] were 96.7% and 65.1%, respectively.
`C[C@H]1CC[C@@]23C[C@]2(C)CCC[C@@H]3[C@@]1(C)CCC1=CC[C@H](C2=CC(=O)O[C@H]2O)OC1` [cacospongionolide]: half-maximal inhibition in assay [1] (IC50) required 3.5 µM. Further, the inhibition in assay [3] turned out to be 90.7%; in assay [4] it was 21.8%.
